Data set [1] is described as follows: Stabilization of polyethylene during processing (Brabender plastograph). To be noted: 0.05 part compound and 0.05 part Irganox 1010 per 100 parts polyethylene; 220° C., 50 rpm; without compound 9.7. On the procedure:
100 parts of polyethylene powder (Lupolen®5260 Z) are blended with 0.05 part of Irganox®1010 (pentaerythritol tetrakis[3-(3,5-di-tert-butyl-4-hydroxyphenyl)propionate]) and 0.05 part of a compound of Table 5 and the blend is kneaded in a Brabender plastograph at 220° C. and 50 rpm. During this time the kneading resistance is recorded continuously as torque. In the course of the kneading time the polymer begins to crosslink after prolonged constancy, as can be determined by the rapid increase in torque. The time taken until a marked increase in torque is shown in Table 5 as a measure of the stabilizing action. The longer this time is the better the stabilizing action.

A short description of data set [2]: Stabilization of multiple-extruded polypropylene. The settings on record: 0.05% of compound; heating zones 260, 270, 280° C.; measured at 230° C./2.16 kg; without compound 17.5. On the procedure:
1.3 kg of polypropylene powder (Profax 6501), which has been prestabilized with 0.025% of Irganox®1076 (n-octadecyl 3-[3,5-di-tert-butyl-4-hydroxyphenyl]propionate) (melt index 3.2 g/10 min, measured at 230° C./2.16 kg) are blended with 0.05% of Irganox®1010 (pentaerythritol tetrakis[3-(3,5-di-tert-butyl-4-hydroxyphenyl)propionate]), 0.05% of calcium stearate, 0.03% of DHT 4A® (Kyowa Chemical Industry Co., Ltd., [Mg4.5Al2(OH)13CO3.3.5H2O]) and 0.05% of compound of Table 4. This blend is then extruded in an extruder having a cylinder diameter of 20 mm and a length of 400 mm at 100 rpm, the 3 heating zones being adjusted to the following temperatures: 260, 270, 280° C. The extrudate is cooled by drawing it through a water bath and is then granulated. This granulate is repeatedly extruded. After 3 extrusions, the melt index is measured (at 230° C./2.16 kg). A substantial increase in the melt index denotes pronounced chain degradation, i.e. poor stabilization.

Data set [3] can be described thus: Light-colored SBR-vulcanisate (Example 23): ΔL-color after 3 weeks in diffuse daylight. To be noted: 2.0 phr stabilizer; 3 weeks at room temperature in diffuse daylight; scale 0 to 100, 100 = no discoloration; without stabilizer 97. On the procedure: (§1) 100 parts by weight of Cariflex®S-1502 (styrene/butadiene rubber, Shell) are processed at 60° C., in a mixing mill, with 30.0 parts by weight of Kronos®CL 220 [titanium dioxide (pigment), Kronos Titan GmbH], 30.0 parts by weight of Aktisil®MM [kaolin (filler), Hoffmann Mineral, Neuburg/Donau], 5.0 parts by weight of Naftolen®N 401 [plasticiser, Metallgesellschaft], 10.0 parts by weight of zinc oxide [vulcanization activator], 2.0 parts by weight of stearic acid [vulcanization activator], 2.0 parts by weight of sulfur [vulcanizing agent], 1.0 part by weight of Vulkacit®MOZ [vulcanization accelerator, Bayer], 0.25 part by weight of Vulkacit®Thiuram [vulcanization accelerator, […], to form a homogeneous mixture, the vulcanization system (sulfur, Vulkacit®MOZ and Vulkacit®Thiuram) not being added until the end of the mixing process. The mixture is vulcanized in electrical vulcanization presses at 150° C. until T95 is reached in the rheometer curves to form elastomer plates 2 mm thick, 21 cm long and 8.0 cm wide.
The remaining elastomer plates are stored for 3 weeks at room temperature in a standard laboratory atmosphere in diffuse daylight. The ΔL-color of those plates is then determined according to DIN 6167, which corresponds to a scale of from 0 to 100. No discoloration is indicated by a value of 100.

The nature of data set [4]: Stabilization of multiple-extruded polypropylene at high temperature. Also on record: unit not given here. The settings on record: measured at 230° C./2.16 kg. On the procedure:
This blend is then extruded in an extruder having a cylinder diameter of 20 mm and a length of 400 mm at 100 rpm, the 3 heating zones being adjusted to the following temperatures: 280, 320, 340° C. The extrudate is cooled by drawing it through a water bath and is then granulated. This granulate is repeatedly extruded. […] A substantial increase in the melt index denotes pronounced chain degradation, i.e. poor stabilization.

Data set [5] is described as follows: Prevention of migration of the oxidized developer in a color photographic material (three layer test elements, interlayer scavenger). To be noted: 20 mg.m^−2 scavenger in interlayer; AGFA P-94 developing process; control without scavenger 0.293. On the procedure: To evaluate compounds of this invention with respect to their ability as interlayer scavengers for oxidized developing agent, three layer photographic test elements are prepared by providing layers in the order indicated on a polyethylene-coated paper support:
(2) An interlayer containing:
The test elements are imagewise exposed through a step wedge with density increment 0.15 and thereafter subjected to the AGFA P-94 developing process.
Upon processing of the test elements, some oxidized developer is prone to migrate from the layer in which it is formed, for example the undermost, magenta-dye-providing layer, to the topmost layer containing the cyan-dye-forming coupler, thereby producing unwanted cyan dye. The amount of cyan dye that is generated depends on the ability of the interlayer to prevent the diffusion of oxidized developer.

A short description of data set [6]: Stabilization of polycarbonate (oven ageing at 135° C., yellowness index and transmission). To be noted: 0.01% stabilizer; for Yellowness index prior to oven-ageing: 2 mm plates, ASTM D 1925-70; for Transmission in % prior to oven-aging / Transmission in % after 2000 hours at 135° C.: at 450 nm; for Transmission in % after 2000 hours at 135° C.: without stabilizer 76.4; for Yellowness index after 2000 hours at 135° C.: circulating air oven, without stabilizer 25.0. On the procedure:
This mixture is then extruded in a Schwabenthan extruder at a maximum of 280° C. The polymer string is then granulated. Using an injection moulding machine, plates having a layer thickness of 2 mm are then moulded from the granulate so obtained at a maximum of 300° C. […] Low YI values denote little discoloration, high YI values high discoloration of the patterns. […] The results are compiled in Tables 17 and 18.

The nature of data set [7]: Light-colored SBR-vulcanisate, ozone atmosphere for 96 hours: crack formation. Details: key: grade 0: Grade 0 denotes no cracks; grade 1 denotes narrow flat cracks; grade 2 denotes moderately broad, moderately deep cracks, clearly visible; grade 3 denotes broad and deep cracks. To be noted: 2.0 phr stabilizer, ozone 50 pphm, 40° C., dynamic elongation, without stabilizer grade 2. On the procedure:
as §1
Some of the elastomer plates so obtained are tested for the action of ozone according to the ASTM standard D 3395-86 while subject to dynamic elongation. In this test the plates are first stored for 30 days in a standard atmosphere [23/50 SN-ISO 291]. Test specimens measuring 20 cm by 1 cm are then punched out and exposed to an ozone atmosphere for 96 hours (ozone content: 50 pphm; temperature: 40° C.; humidity: 50% rel.; elongation: 0 to 25%; elongation rate: 0.5 Hz; number of load cycles: approximately 173 000). The test plates are then assessed for crack formation according to ASTM D 3395-86. Grade 0 denotes no cracks; grade 1 denotes narrow flat cracks; grade 2 denotes moderately broad, moderately deep cracks, clearly visible; grade 3 denotes broad and deep cracks. The lower the grade number, the better the stabilization of the elastomer plates.

Data set [8] can be described thus: Stabilisation of polybutylene terephthalate (impact strength in oven-ageing test at 160° C.). To be noted: for Impact strength after 360 h: without stabilizer 26. On the procedure: 1.0 kg of a polybutylene terephthalate powder which has been dried for 10 hours at 100° C. in a vacuum drying oven (Crastin®S600, of Ciba Specialty Chemicals Inc.) is charged with the stabilizers listed in Table 20 and is mixed for 2 minutes in a Henschel mixer. This mixture is then extruded in a twin-screw extruder (type Berstorff) at a maximum of 250° C. and is then granulated. In an injection moulding apparatus, the granulate so obtained is moulded at a maximum of 260° C. to little rods 4×6 mm thick and 50 mm long. These little rods are then aged in a circulating air oven at 160° C. After 360 hours the impact strength of the rods is measured in KJ/m^2. The higher the values, the better the stabilization.

Data set [9] in a line: Stabilization of polycarbonate (Weather-O-Meter exposure). To be noted: 0.30% stabilizer; Weather-O-Meter WOM CI 65; without stabilizer 30.2. On the procedure:
1.0 kg of a polycarbonate powder which has been dried for 8 hours at 120° C. in a vacuum drying oven (Lexan®145, of General Electric) is charged with the stabilizers listed in Table 21 and is mixed for 2 minutes in a Henschel mixer. This mixture is then extruded in a Schwabenthan extruder at a maximum of 280° C. The polymer string is then granulated. Using an injection moulding machine, plates having a layer thickness of 2 mm are then moulded from the granulate so obtained at a maximum of 300° C. These plates are then irradiated in a Weather-O-Meter (WOM CI 65) for 2500 hours at a black standard temperature of 63° C., at a dry/wet cycle of 102/18 minutes and at an intensity of 0.35 W/m^2 at 340 nm. The yellowness index (YI) of these plates is then determined according to ASTM D 1925-70. Low YI values denote little discoloration, high YI values high discoloration of the plates. […]

The record followed here is patent US6809208B2, “3-Arylbenzofuranones with electron-withdrawing substituents as stabilizers” (Ciba Specialty Chemicals Corporation, priority 2000, dated 2004).

With `CC(C)(C)c1cc2c(c(C(C)(C)C)c1)OC(=O)C2c1ccc(F)cc1` (stereo not shown) [(105), 5,7-di-tert-butyl-3-(4-fluorophenyl)-3H-benzofuran-2-one], the melting point lay in the range of 146 to 147 °C. For the same compound, the “Time until increase in torque” value in [1] came out at 27.0 min. Further, the “Melt index after 3 extrusions” value in data set [2] worked out at 4.7.

In turn, `CC(C)(C)c1cc2c(c(C(C)(C)C)c1)OC(=O)C2c1ccc(C(F)(F)F)cc1` (stereo not shown) [Compound (101), 5,7-di-tert-butyl-3-(4-trifluoromethyl-phenyl)-3H-benzofuran-2-one] had a melting point of 127 to 128 °C. Further, in [3], the “ΔL-color according to DIN 6167” value stood at 95. In addition, in data set [4] (280° C., stabilizer 0.015% by weight), the “Melt index after 5 extrusions” value is given as 8.5. In addition, in data set [4] (320° C., stabilizer 0.015% by weight), the “Melt index after 5 extrusions” value is given as 19.6. Also, in data set [4] (340° C., stabilizer 0.015% by weight), the “Melt index after 5 extrusions” value worked out at 22.5. For the same compound, in data set [5], the “Cyan density at a magenta density of 1.5” value worked out at 0.253. In data set [1], the “Time until increase in torque” value was found to be 27.5 min. In addition, the “Melt index after 3 extrusions” value in [2] was determined as 4.7. In addition, in data set [6], the “Yellowness index prior to oven-ageing” value is on record as 3.4, the “Transmission in % prior to oven-aging” value came to 85.8%, the “Transmission in % after 2000 hours at 135° C.” value is recorded as 81.3% and the “Yellowness index after 2000 hours at 135° C.” value turned out to be 16.4. Moreover, in data set [7], the “Crack formation according to ASTM D 3395-86” value is “grade 1”.

For the compound `CC(C)(C)c1cc2c(c(C(C)(C)C)c1)OC(=O)C2c1ccc(C#N)cc1` (stereo not shown) [Compound (106), 5,7-di-tert-butyl-3-(4-cyanophenyl)-3H-benzofuran-2-one], the melting point is 136 to 137 °C.

With `COC(=O)c1ccc(C2C(=O)Oc3c2cc(C(C)(C)C)cc3C(C)(C)C)cc1` (stereo not shown) [Compound (109), 5,7-di-tert-butyl-3-(4-methoxycarbonylphenyl)-3H-benzofuran-2-one], the “Cyan density at a magenta density of 1.5” value in data set [5] is 0.254. Also, the “Time until increase in torque” value in [1] was determined as 27.5 min. In addition, the “Melt index after 3 extrusions” value in [2] worked out at 4.8.

With `CCCCCCCCCCCCCCCCCCOC(=O)c1ccc(C2C(=O)Oc3c2cc(C(C)(C)C)cc3C(C)(C)C)cc1` (stereo not shown) [Compound (112)], in [6], the “Yellowness index prior to oven-ageing” value came to 3.5, the “Transmission in % prior to oven-aging” value is reported as 85.9%, the “Transmission in % after 2000 hours at 135° C.” value came out at 81.8% and the “Yellowness index after 2000 hours at 135° C.” value stood at 14.3.

With `Cc1cc(CCC(=O)OCCOCCOCCOC(=O)CCc2cc(C)c(O)c(C(C)(C)C)c2)cc(C(C)(C)C)c1O` [Irganox ®245], in data set [8] (0.05% stabilizer), the “Impact strength after 0 h” value is 132 KJ/m^2 and the “Impact strength after 360 h” value was 111 KJ/m^2. For the same compound, in [8] (0.10% stabilizer), the “Impact strength after 0 h” value stood at 135 KJ/m^2 and the “Impact strength after 360 h” value was found to be 114 KJ/m^2.

For `CC(C)(C)c1ccc(OP(Oc2ccc(C(C)(C)C)cc2C(C)(C)C)c2ccc(-c3ccc(P(Oc4ccc(C(C)(C)C)cc4C(C)(C)C)Oc4ccc(C(C)(C)C)cc4C(C)(C)C)cc3)cc2)c(C(C)(C)C)c1` [Sandostab ®P-EPQ, tetrakis(2,4-di-tert-butylphenyl)-4,4′-biphenylene diphosphonite], the “Melt index after 5 extrusions” value in data set [4] (280° C., stabilizer 0.050% by weight) was 6.3; in data set [4] (320° C., stabilizer 0.050% by weight), 23.9; in data set [4] (340° C., stabilizer 0.050% by weight), 61.5.

With `CC(C)(c1ccccc1)c1cc(-n2nc3ccccc3n2)c(O)c(C(C)(C)c2ccccc2)c1` [Tinuvin ®234], the “Yellowness index after 2500 h exposure to light” value (from here on “Yellowness index … to light”) in [9] is 17.8.

For the compound `CC(C)(C)CC(C)(C)c1cc(Cc2cc(C(C)(C)CC(C)(C)C)cc(-n3nc4ccccc4n3)c2O)c(O)c(-n2nc3ccccc3n2)c1` [Tinuvin ®360], the “Yellowness index … to light” value in data set [9] was found to be 16.6.

For the compound `CCCCCCOc1ccc(-c2nc(-c3ccccc3)nc(-c3ccccc3)n2)c(O)c1` [Tinuvin ®1577], in data set [9], the “Yellowness index … to light” value turned out to be 11.2.
